Data reported in patent US20190070214A1 (priority 2016, published 2019).
“And” between values parts separate entries of the source, which are not always exact repeats. Identical values can stand only once. Positions of bridges follow the written chain, without caps; N, C: chain ends. Non-standard residues stand in square brackets, D forms with d. Residues, ends and D or L forms follow the SMILES beside them. *: point of attachment. Ileψ(thiazoline)Cys = CC[C@H](C)[C@H](N)C1=N[C@H](C(=O)*)CS1; dOrn = NCCC[C@@H](N)C(=O)O

What was measured:
[1] = TNBS-induced colitis, body weight
[2] = TNBS-induced colitis, colon length and weight; conditions: Group 2, prednisolone 1 mg/kg/dose t.i.d.; day 5; individual animals
[3] = TNBS-induced colitis, histopathology of colon; conditions: day 5
[4] = TNBS-induced colitis, video endoscopy colitis score
[5] = system: Clostridium perfringens; assay type: in vivo, broiler chicks
[6] = Group 2, prednisolone 1 mg/kg/dose t.i.d. p.o. + TNBS, individual animals
[7] = Group 2, prednisolone 1 mg/kg/dose t.i.d., mean per animal, scale 0-4 (Table 3)
[8] = Group 2, prednisolone 1 mg/kg/dose t.i.d., individual animals, scale 0-4 (Table 2)

## C[C@]12C=CC(=O)C=C1CC[C@@H]1[C@@H]2[C@@H](O)C[C@@]2(C)[C@H]1CC[C@]2(O)C(=O)CO [Prednisolone]
[1]; [6]
  Animal Weights Day 0: 23.09 and 25.03 and 23.28 and 23.97 and 22.64 and 24.58 and 24.61 and 25.53 and 25.1 and 24.95
  Animal Weights Day 1: 20.19 and 21.15 and 20.41 and 20.78 and 20.62 and 21.89 and 22.21 and 22.35 (2×) and 22.44
  Animal Weights Day 2: 19.12 and 20.17 and 19.33 and 19.52 and 20.33 and 20.83 and 22.81 and 21.35 and 22.46 and 23.66
  Animal Weights Day 3: 18.77 and 19.45 and 18.6 and 19.09 and 22.59 and 21.38 and 23.44 and 21.24 and 23.92 and 24.77
  Animal Weights Day 4: 18.36 and 19.11 and 19.32 and 18.56 and 22.41 and 21.65 and 23.51 and 22.09 and 23.48 and 23.97
  Animal Weights Day 5: 19.28 and 20.1 and 21.49 and 19.89 and 22.48 and 22.05 and 24.03 and 23.91 and 24.24 and 24.3
  Animal Weights Day −1: 23.94 and 25.76 and 24.35 and 24.86 and 24.02 and 25.97 and 26.64 and 26.78 and 27.15 and 27.02
[1]; day 2, prednisolone 1 mg/kg/dose t.i.d. p.o.
  average weight loss from starting weight: 18.3%
[2]
  Colon Length: 8 (3×) and 6.4 and 8.5 and 7.2 (2×) and 7 and 6.5 and 7.5
  Colon Weight: 0.334 and 0.344 and 0.392 and 0.386 and 0.248 and 0.276 and 0.24 and 0.318 and 0.35 and 0.224
[3]; [7]
  Histology Scores Edema: 1.20 (4×) and 0.83 (2×) and 0.50 and 0.67 and 1.40 and 0.80
  Histology Scores Inflam: 1.60 and 1.40 and 1.00 (3×) and 0.83 (2×) and 0.33 and 0.67 and 0.80
  Histology Scores Necrosis: 1.00 and 0.80 (3×) and 0.40 and 0.67 and 0.00 and 0.33 and 0.50 and 0.60
[3]; prednisolone, p=0.004
  edema scores vs vehicle control: significantly lower
[3]; prednisolone, p=0.007
  sum pathology scores vs vehicle control: significantly lower
[4]; [8]
  Endo Score Day 3: 2 (4×) and 1 (2×) and 3 and 4 (3×)
  Endo Score Day 5: 3 (3×) and 2 (5×) and 4 and 1
[4]; day 5, prednisolone, scale 0-4, vehicle 3
  colitis score of representative endoscopy image: 2
[4]; prednisolone 1 mg/kg/dose t.i.d., day 3 p=0.010, day 5 p=0.027
  mean colitis scores vs vehicle control: significantly reduced mean colitis scores

## CC[C@H](C)[C@H](N)C1=N[C@H](C(=O)N[C@@H](CC(C)C)C(=O)N[C@H](CCC(=O)O)C(=O)N[C@H](C(=O)N[C@H]2CCCCNC(=O)[C@H](CC(N)=O)NC(=O)[C@@H](CC(=O)O)NC(=O)[C@H](Cc3cnc[nH]3)NC(=O)[C@@H](Cc3ccccc3)NC(=O)[C@H]([C@@H](C)CC)NC(=O)[C@@H](CCCN)NC2=O)[C@@H](C)CC)CS1 [BMD, bacitracin] ({Ileψ(thiazoline)Cys}-L[dE]IK[dOrn]I[dF]H[dD]N; lactam 4-C)
[5]; BMD positive control in water, P<0.05, meaning of figure unclear
  necrotic enteritis (NE) of the GI tract, figure given for BMD: 93%
[5]; total aggregate deaths up to and including day 14
  mortality normalized to untreated (100%): 45%
